Laboratory results: ChEMBL document CHEMBL1201862, “PubChem BioAssay data set” (2004)
Calls of active or inactive are those of the source. Cut-off read from the data, not from the text of the source, for most assays here: actives have a measured EC50 and inactives only a lower limit.

Key:
[1] = inhibitors of intracellular T. cruzi replication, confirmation, NIH3T3 host cells, beta-gal luminescence (AID 2044); type: functional, cell-based;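 note: intracellular parasites grown in NIH/3T3 mouse fibroblasts as host cells; luminescent beta-galactosidase reporter signal from transgenic T. cruzi replicating inside host cells; inhibitors lower the luminescence signal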
[2] = cytotoxicity toward NIH3T3 fibroblasts, dose response, counter-screen, cell-based, ATP luminescence, mouse fibroblasts (AID 2010); type: functional;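 note: cells exposed to compound for about 90 hours before reading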
[3] = Luminescence Cell-Based Dose Retest to Confirm Inhibitors of Cancer Stem Cells. [Related pubchem assays (depositor defined):AID2717, AID2721]; type: functional, Homo sapiens; conditions: Homo sapiens
[4] = system: Streptococcus sp. 'group A'; experiment: growth inhibition of control SK(-) GAS strain, dose response, counter-screen for streptokinase expression inhibitor project, luminescence, kanamycin, BacTiterGlo, confirmation (AID 1900); type: functional, organism-based
Streptokinase A = biological target: T1, Streptokinase A (Streptococcus pyogenes serotype M1, UniProt P10520); experiment: S. pyogenes streptokinase expression inhibitors, potency, dose response, plasminogen activation absorbance, OD405 (AID 1914); type: functional, Streptococcus pyogenes M1 GAS;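 note: secreted streptokinase activity via plasminogen activation per viability signal from cell pellet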
T1 sequence (P10520 whole entry): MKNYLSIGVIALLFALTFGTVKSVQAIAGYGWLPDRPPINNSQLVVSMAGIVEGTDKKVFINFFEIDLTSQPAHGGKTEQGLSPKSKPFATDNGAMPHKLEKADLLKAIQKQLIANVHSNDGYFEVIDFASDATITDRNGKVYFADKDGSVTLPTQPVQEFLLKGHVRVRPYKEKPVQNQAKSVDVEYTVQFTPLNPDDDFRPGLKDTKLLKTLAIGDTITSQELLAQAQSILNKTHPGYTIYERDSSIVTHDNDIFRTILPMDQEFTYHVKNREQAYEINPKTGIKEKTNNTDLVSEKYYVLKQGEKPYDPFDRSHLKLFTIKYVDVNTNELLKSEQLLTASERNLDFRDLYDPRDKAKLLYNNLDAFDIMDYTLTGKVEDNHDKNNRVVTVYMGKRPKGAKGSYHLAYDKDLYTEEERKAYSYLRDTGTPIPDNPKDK

Streptococcus = experiment: Group A Streptococcus viability loss, dose response, counter-screen for streptokinase expression inhibitor project, luminescence, BacTiterGlo (AID 1915); type: functional, organism-based;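 note: potency for reduction of bacterial viability or growth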
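Throughout, for AC50: cells exposed to compound for roughly 70 hours or longer before luminescence read.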

Compound | EC50 [1] | EC50 [2] | EC50 [4] | EC50 (Streptococcus) | further results
CCCOc1ccc(-c2nc(SCc3ccccc3)nc(O)c2C#N)cc1OC | 3.11 µM (active) | 17.8 µM (active) |  |  | 
O=C(c1cc([N+](=O)[O-])cc([N+](=O)[O-])c1)N1CCN(Cc2ccc3c(c2)OCO3)CC1 | 0.306 µM (active) | > 60 µM (not active) |  |  | 
O=C(Nc1ccc(Cl)cc1)Nc1ccccc1Sc1ncc([N+](=O)[O-])s1 |  |  |  |  | AC50 [3]: 4.23 µM (active)
C=CCn1c(SC/C(O)=C(/C#N)C(C)=N)nc2sc(C)c(C)c2c1=O |  |  | 6.33 µM (active) | 10 µM (active) | EC50 (Streptokinase A): > 150 µM (not active)
COc1ccc(CC(C)N2CCN(Cc3ccccc3)CC2)c(OC)c1 (stereo unspecified) | 0.502 µM (active) | > 30 µM (not active) |  |  | 
Cc1cc(N/N=C/c2ccccc2O)nc(-c2ccccc2O)n1 |  |  | 0.855 µM (active) | 2.9 µM (active) | 
CCc1ccc(OCCCCN(C)Cc2ccccc2)cc1 | 0.213 µM (active) | > 60 µM (not active) |  |  | 
COc1cccc(-c2sc3ccc(OC)cc3c2C#CCCO)c1 |  |  |  |  | AC50 [3]: 2.79 µM (active)
O=C1CC(NS(=O)(=O)c2ccc([N+](=O)[O-])cc2)CN1c1cccc(F)c1 (stereo unspecified) | 1.08 µM (active) | > 60 µM (not active) |  |  | 
COc1cc(OC)cc(C(=O)NC(=S)N2CCCCC2c2cccnc2)c1 (stereo unspecified) | 0.769 µM (active) | > 60 µM (not active) |  |  | 
COCc1cc(CN2CCCC(C(=O)c3cccc(C(F)(F)F)c3)C2)ccc1OC (stereo unspecified) | 0.1 µM (active) | > 60 µM (inconclusive) |  |  | 
CC1(C)CC2CC(C)(CN2S(=O)(=O)c2ccc(C(=O)Nc3ccc(Cl)c(S(=O)(=O)N4CCOCC4)c3)cc2)C1 (stereo unspecified) | 2.22 µM (active) | 21.6 µM (active) |  |  | 
CCOC(=O)c1ccc(NC(=S)NN)cc1 |  |  |  |  | EC50 (Streptokinase A): > 150 µM (not active)
CCc1ccc(/C=C2/SC(=S)N(CC(=O)Nc3nc4ccccc4s3)C2=O)cc1 |  |  | 2.87 µM (active) | 35.4 µM (active) | EC50 (Streptokinase A): > 150 µM (not active)
CCCCn1c(O)c(N=NC(=O)c2ccccc2NS(=O)(=O)c2cccs2)c2ccccc21 |  |  | 21.8 µM (active) | 68.3 µM (active) | EC50 (Streptokinase A): > 150 µM (not active)
CC(C)c1nc(NCc2ccccc2)c(C#N)c2c1CCCC2 |  |  | 4.75 µM (active) | 12.2 µM (active) | EC50 (Streptokinase A): 1.96 µM (active)
C/C(=N\Nc1nc2ccccc2s1)c1ccc2c(c1)OCO2 |  |  | 16.7 µM (active) | 65.6 µM (active) | EC50 (Streptokinase A): > 150 µM (not active)
Fc1ccccc1C1c2[nH]c3ccccc3c2CCN1Cc1cccn1-c1ncccn1 (stereo unspecified) | 1.07 µM (active) | > 60 µM (not active) |  |  | 
COc1ccc2sc(-c3ccc(N(C)C)cc3)c(-c3ccc4cc[nH]c4c3)c2c1 |  |  |  |  | AC50 [3]: 3.54 µM (active)
N#Cc1c(N)nc(Sc2ccc(Cl)cc2)c(C#N)c1-c1ccccc1Cl |  |  | 4.24 µM (active) | > 150 µM (not active) | EC50 (Streptokinase A): 13.2 µM (active)

Compound | EC50 [1] | EC50 [2] | EC50 [4] | EC50 (Streptococcus) | further results
COc1ccc(NC(=O)CCN2CCN(C/C=C/c3ccccc3)CC2)cc1 | 0.686 µM (active) | > 60 µM (not active) |  |  | 
CC1CC(NC(=O)c2c(O)n3ccsc3nc2=O)CC(C)(C)C1 (stereo unspecified) |  |  | 11.3 µM (active) | > 150 µM (not active) | EC50 (Streptokinase A): 14.5 µM (active)
CC(NC(=O)c1cccc(Cn2cc([N+](=O)[O-])cn2)c1)c1ccc(C(C)(C)C)cc1 (stereo unspecified) | 2.59 µM (active) | > 60 µM (not active) |  |  | 
CN1CCN(CC(=O)C23CC4CC(CC(C4)C2)C3)CC1 | 0.225 µM (active) | > 30 µM (not active) |  |  | 
O=C(N/N=C\c1ccc(F)cc1)c1ccc(Cn2cc(Br)c([N+](=O)[O-])n2)o1 | 0.761 µM (active) | > 60 µM (not active) |  |  | 
CCCCOc1ccc(C(=O)CCN2CCOCC2)cc1 | 0.836 µM (active) | > 60 µM (not active) |  |  | 
COc1cccc2sc3cc(C#CC4(O)CCCCC4)ccc3c(=O)c12 |  |  |  |  | AC50 [3]: 2.4 µM (active)
O=C(CNCCc1ccc(Cl)cc1)Nc1ccc(C(=O)N2CCCCC2)cc1 | 0.502 µM (active) | > 60 µM (not active) |  |  | 
C=CCn1c(=O)c(C(=O)NCCc2ccccc2)c(O)c2ccccc21 |  |  |  |  | AC50 [3]: 5.39 µM (active)
CCc1ccc(NC2=NCC(c3ccccc3)S2)cc1 (stereo unspecified) |  |  | 8.39 µM (active) | 18.8 µM (active) | EC50 (Streptokinase A): > 150 µM (not active)
FC(F)(F)c1cccc(NC(=S)N(CCCN2CCCC2)Cc2cccn2Cc2ccc(Cl)cc2)c1 | 2.15 µM (active) | > 60 µM (not active) |  |  | AC50 [3]: 3.37 µM (active)
Oc1cccc(NC(=S)N=Nc2c(O)[nH]c3ccc(Br)cc23)c1 |  |  | 1.22 µM (active) | 4.54 µM (active) | 
C=CCn1c(SCCC)nc2sc3c(c2c1=O)CCc1ccccc1-3 |  |  |  |  | AC50 [3]: 1.1 µM (active)
Cc1cc(C)c(S(=O)(=O)c2cc(F)ccc2C)c(Cl)n1 | 1.39 µM (active) | > 60 µM (not active) |  |  | 
O=C(CSc1nnnn1-c1ccc(O)cc1)N1N=C(c2ccc3ccccc3c2)CC1c1ccccc1 (stereo unspecified) | 2.08 µM (active) | > 60 µM (not active) |  |  | 
CCOC(=O)c1ccc(NC(S)=NN)cc1 |  |  | 9.57 µM (active) | > 150 µM (not active) | 
Cc1ccc(-c2cc(C(F)F)n3ncc(C(=O)N4CCCCC4c4cccnc4)c3n2)cc1 (stereo unspecified) | 0.708 µM (active) | > 60 µM (inconclusive) |  |  | 
CC(C)(C)c1cc(C(=O)NCCN2CCCC2)cc(C(C)(C)C)c1 | 4.49 µM (active) | > 30 µM (not active) |  |  | 
Cc1cc(N2CCN(c3ccccc3Cl)CC2)n2cc(-c3ccccc3)nc2n1 |  |  | 11.5 µM (active) | 12 µM (active) | EC50 (Streptokinase A): > 150 µM (not active)
